We go through eight compounds from PubChem BioAssay (NCI).

Common to all, as to experiment: DTP human tumour cell line panel, 48 h
For assay [1], the system named is ACHN renal.
Assay [2] has as its system BT-549 breast.
The subject of assay [3] is DU-145 prostate.
For assay [4], the system named is HCC-2998 colon.
Assay [5] concerns HCT-15 colon.
Assay [6] deals with IGROV1 ovarian.
Assay [7] concerns LOX IMVI melanoma.
For assay [8], the system named is M14 melanoma.
In assay [9] the test system is MCF7 breast.
The test system of assay [10] is MDA-N.
For assay [11], the system named is NCI-H226 lung.
The subject of assay [12] is NCI-H23 lung.
Assay [13] deals with NCI-H460 lung.
Assay [14] deals with OVCAR-8 ovarian.
The subject of assay [15] is RPMI-8226 leukemia.
For assay [16], the system named is SF-268 CNS.
The subject of assay [17] is SK-MEL-5 melanoma.
Assay [18] has as its system TK-10 renal.
Assay [19] has as its system T-47D breast.

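Compound exposure: 48 hours, 5 concentrations, 96-well plates. GI50 marks 50% less growth. Definition used: TGI = concentration required for complete inhibition of growth.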

`Cc1ccc(O)c(-c2csc(NCN3CCN(CNc4nc(-c5cc(C)ccc5O)cs4)CC3)n2)c1`: the TGI in [1], in assay [2], in assay [3], in assay [4], in [5] and in assay [6] was greater than 100 µM in each case. For the same compound, the TGI in [7], in [8], in [9], in assay [10], in assay [11] and in [12] was greater than 100 µM throughout. Further, the TGI in [13], in [14], in [15], in assay [16], in assay [17] and in assay [18] was greater than 100 µM throughout.
For the compound `Cn1c2ccccc2n2c(=O)c3cccnc3c(C#N)c12`, the TGI in assay [1], in assay [2], in assay [3], in assay [5], in [7] and in assay [10] was greater than 100 µM throughout. The TGI in assay [11] is 30.1 µM; in [12], greater than 100 µM; in assay [13], greater than 100 µM; in assay [14], greater than 100 µM; in assay [15] it was greater than 100 µM; in assay [16], greater than 100 µM. Further, the total growth inhibition concentration (TGI) in assay [17], in assay [19] and in [18] was greater than 100 µM in each case.
With `CC(=N/NC(=S)N1CCCCC1)/C(C)=N\NC(=S)N1CCCCC1`, the TGI in assay [1] stood at 2.92 µM; in assay [2], 3.38 µM; in assay [3], 3.05 µM; in assay [4], 3.48 µM; in assay [5] it was 5.31 µM; in assay [6], 3.13 µM. Further, the TGI was greater than 100 µM in [7]; 4.57 µM in assay [8]; 6.44 µM in [10]; 3 µM in assay [11]; 4.82 µM in [12]; 3.6 µM in assay [13]. The TGI in assay [15] was determined as 5.13 µM; in [16] it was 3.45 µM; in [17] it was 3.07 µM; in assay [19] it was 3.27 µM; in [18], 3.24 µM.
Turning to `O=CC1OC(=O)c2cc(O)c(O)c(O)c2-c2c(cc(O)c(O)c2O)C(=O)OC1C(O)C(O)CO` (stereo unspecified), the TGI in [1], in assay [2], in assay [3], in assay [4], in assay [5] and in [6] was greater than 100 µM in each case. The TGI in assay [7] was 31.4 µM; in assay [8], greater than 100 µM; in assay [9], 39.4 µM; in assay [10] it was 36.2 µM; in assay [11], greater than 100 µM; in [12] it was greater than 100 µM. The TGI in [13] was greater than 100 µM; in assay [14], 45.8 µM; in assay [15], 72.4 µM; in assay [16] it was greater than 100 µM; in assay [17], greater than 100 µM; in [18], greater than 100 µM.
Consider `O=C(NCCCCNCCCNC(=O)c1cc(-c2ccccc2)nc2ccccc12)c1cc(-c2ccccc2)nc2ccccc12`, for which the TGI was 3.3 µM in [1]; 37.5 µM in assay [2]; 3.8 µM in [3]; 3.09 µM in [4]; 3.46 µM in [5]; 2.88 µM in assay [6]. Also, the TGI came to 3.07 µM in assay [9]; 3.23 µM in assay [10]; 3.26 µM in assay [11]; 4.02 µM in assay [12]; 3.39 µM in assay [13]; 3.06 µM in assay [14]. The TGI in assay [15] worked out at 6.33 µM; in assay [17], 2.75 µM; in assay [18], 2.93 µM.
Regarding `C=Cc1cc2c(cc1O)CC[C@@H]1[C@@H]2CC[C@]2(C)[C@@H](O)CC[C@@H]12`, the TGI in assay [1] is 21.1 µM; in assay [3], 16.6 µM; in [4], 25.4 µM; in assay [5] it was 28.8 µM; in [6], 19.3 µM; in assay [7], 25.1 µM. In addition, the TGI in [8] stood at 17.7 µM; in assay [10] it was 7.76 µM; in [11], 30.7 µM; in [12] it was 14.3 µM; in assay [13], 21.1 µM; in assay [16], 21.9 µM. Besides, the TGI in assay [17] was found to be 15.7 µM; in assay [19], 36.2 µM; in assay [18], 38.3 µM. Further, in assay [3], the GI50 was 4.41 µM.
On to `CC(C)NC(=O)OCc1c(COC(=O)NC(C)C)c(-c2ccc[n+](COC(=O)C3CC3)c2)n2c1CCC2`, for which the TGI is 82.7 µM in [1]; greater than 100 µM in assay [2]; greater than 100 µM in [3]; greater than 100 µM in [4]; greater than 100 µM in [5]; greater than 100 µM in [6]. Further, the TGI in assay [7], in assay [8], in assay [9], in assay [11], in assay [12] and in assay [13] was greater than 100 µM each time. Moreover, the TGI in [14], in [15], in assay [16], in assay [17], in assay [19] and in assay [18] was greater than 100 µM each time.
`CCOC(=O)C(C)(C)/C=C\C(Cl)=C(Cl)Cl`: the TGI in [1], in assay [3], in [4], in [6], in assay [7] and in [8] was greater than 100 µM each time. Besides, the TGI in [10], in assay [11], in [12], in [14], in [15] and in assay [16] was greater than 100 µM throughout. The TGI in [17] and in [18] was greater than 100 µM throughout.
